In patent publication US9763991B2, “Composition for the treatment of neurobehavioral disorders” (Cannabis Science International Holding B.V., priority 2013, dated 2017):

Columns and labels:
C57BL6 mice [1] = experiment: Safety data, body weight and organ weight after oral dosing (gavage) of Cannabinol; type: in vivo, mouse
Experimental: (§1) The experiment is designed to test a range of concentrations around the equivalent previously tested in humans for single-dose kinetics. Animal experiments were performed following the directive 2010/63/EU on the protection of animals used for scientific purposes.
(§2) 6 groups of 5-6 male C57BL6 of approximately 28 g body weight (range 27-30 g) with the use of one cage for 3 mice: Group 0: Pure Olive Oil, Group 1: CBN at 0.01 mg/Kg body weight, Group 2: CBN at 0.05 mg/Kg body weight, Group 3: CBN at 0.1 mg/Kg body weight, Group 4: CBN at 0.25 mg/Kg body weight and Group 5: CBN at 0.50 mg/Kg body weight
The volume that can be administered to the animal should not exceed 10 ml/kg. For a mouse of 20 g the maximum volume corresponds to 0.2 ml. For this procedure a volume of 0.1 ml will be used (half of the maximum volume). 1 ml of each stock solution (cannabinol, CBN 1-5 and pure olive oil, POO) was dispensed into Falcon vials. Prior to the administration, the weight of each mouse was recorded and the appropriate amount of cannabinol solution was determined. For the POO group always 0.1 ml was dispensed in 6 an eppendorf vessel, for the other experimental groups transfer the amounts of CBN 1-5 and POO according to table 2 were used in an eppendorf vial. The amounts to be administered were adjusted depending on mouse group and individual weights.
Monitor the animal for potential complications: Esophagitis (inflammation of the oesophagus), perforation of the oesophagus or trachea, damage to the cardiac sphincter (upper stomach sphincter) insertion of needle and solution into the lungs, lung perforation, damage to the oral cavity, aspiration of solution into the lungs from regurgitation, traumatic injuries related to improper restrain.
The mean weights (and standard deviations) of spleen, liver and kidney from all mice groups at sacrifice are monitored.

C57BL6 mice [2] = experiment: Sleep monitoring after oral dosing (gavage) of Cannabinol in olive oil; type: in vivo, mouse; settings: all 5 doses (0.01-0.5 mg/Kg) by oral gavage in olive oil, single administration at 3 consecutive days, vs pure olive oil
Experimental: as §1, §2
Solutions (named CBN 0, CBN 1, CBN 2, CBN 3, CBN 4, CBN 5, Pure Olive Oil) having different cannabinol concentrations dissolved in olive oil were prepared in sterile conditions, under a laminar flood hood. Pure olive oil was used as a negative control.
The volume that can be administered to the animal should not exceed 10 ml/kg. For a mouse of 20 g the maximum volume corresponds to 0.2 ml. For this procedure a volume of 0.1 ml will be used (half of the maximum volume). 1 ml of each stock solution (cannabinol, CBN 1-5 and pure olive oil, POO) was dispensed into Falcon vials. Prior to the administration, the weight of each mouse was recorded and the appropriate amount of cannabinol solution was determined. […]

With `CCCCCc1cc(O)c2c(c1)OC(C)(C)c1ccc(C)cc1-2` [Cannabinol] the “aggressive behaviour and clinical alterations (tremors)” value (C57BL6 mice [1]; 0.01-0.5 mg/Kg daily by oral gavage, male C57BL6 mice) was “No presence of aggressive behaviour, neither evident clinical alterations”, the “liver and kidney weights at sacrifice” value (C57BL6 mice [1]; among experimental groups, 0.01-0.5 mg/Kg oral) was “No significant changes” and the body weight change (C57BL6 mice [1]; within experimental groups with time or among groups at fixed time, 0.01-0.5 mg/Kg oral) was “No significant changes”. For the same compound, the “number of mice sleeping 30 minutes after administration” value (C57BL6 mice [2]) was “increased significantly”.
